Test results: patent publication US10766894B2, “Aza-indazole compounds for use in tendon and/or ligament injuries” (NOVARTIS AG, priority 2016, dated 2020)
Where two headings read alike, the source gives them in different places.

Tests used:
[1] = system: collagen type 1 (Col1a2) gene expression in rat tail tendon fascicles; assay: Ex vivo assay, tendon fascicles, collagen type 1 mRNA (qPCR); assay type: cell-based, Sprague Dawley rat; settings: 96 h; Examples table; rat tail tendon fascicles, four days, delta-delta Ct; read-out: Ex vivo Col1a2 (EC50 μM)
[2] = system: mouse immortalized TT-D6 Scx-luciferase (ScxL) cell line; transcriptional activation of Scleraxis (Scx) gene; assay: SCX-LUC in vitro assay (scleraxis promoter luciferase reporter); assay type: cell-based; settings: Mus musculus, 96 h, TT-D6 Scx-luciferase cells, 1 ng/ml TGFβ1, four days
[3] = system: Tenomodulin (Tnmd) gene expression in rat tail tendon fascicles; assay: Ex vivo assay, tendon fascicles, Tenomodulin mRNA (qPCR); assay type: cell-based, Sprague Dawley rat; settings: 96 h; Examples table; rat tail tendon fascicles, four days, delta-delta Ct; read-out: Ex vivo Tnmd (EC50 μM)
[4] = system: Scleraxis (Scx) gene expression in rat tail tendon fascicles; assay: Ex vivo assay, tendon fascicles, Scleraxis mRNA (qPCR); assay type: cell-based, Sprague Dawley rat; settings: 96 h; Examples table; rat tail tendon fascicles, four days, delta-delta Ct; read-out: Ex vivo Scx (EC50 μM)
[5] = Examples table, read-out: Scx-Luc (EC50 μM)
[6] = Table 1, read-out: Scx-Luc (EC50 uM)

Nc1n[nH]c2ccc(-c3ccc(S(=O)(=O)N[C@H]4C[C@](O)(C(F)(F)F)C4)cc3Cl)nc12 [Example 1]
EC50 [1]: 1.59 µM | EC50 [2, 5]: 0.183 µM | EC50 [3]: 0.804 µM | EC50 [4]: 2.11 µM

Nc1n[nH]c2ccc(-c3ccc(NS(=O)(=O)c4ccc(Cl)cc4)cc3Cl)nc12 [Example 3, N-(4-(3-amino-1H-pyrazolo[4,3-b]pyridin-5-yl)-3-chlorophenyl)-4-chlorobenzenesulfonamide]
EC50 [1]: 3.08 µM | EC50 [2, 5]: 0.801 µM | EC50 [3]: 1.15 µM | EC50 [4]: > 10 µM

Nc1n[nH]c2ccc(-c3ccc(S(=O)(=O)N[C@@H]4CCC[C@@H]4O)cc3Cl)nc12 [Example 7, 4-(3-amino-1H-pyrazolo[4,3-b]pyridin-5-yl)-3-chloro-N-((1R,2S)-2-hydroxycyclopentyl)benzenesulfonamide]
EC50 [1]: 2.06 µM | EC50 [2, 5]: 0.305 µM | EC50 [3]: 1.68 µM | EC50 [4]: 1.6 µM

Cc1cc(S(=O)(=O)NC2CC(F)(F)C2)ccc1-c1ccc2[nH]nc(N)c2n1 [Example 8, 4-(3-amino-1H-pyrazolo[4,3-b]pyridin-5-yl)-N-(3,3-difluorocyclobutyl)-3-methylbenzenesulfonamide]
EC50 [1]: 1.29 µM | EC50 [2, 5]: 0.346 µM | EC50 [3]: 0.261 µM | EC50 [4]: 0.11 µM

Cc1cc(S(=O)(=O)N(C)[C@H]2C[C@](O)(C(F)(F)F)C2)ccc1-c1ccc2[nH]nc(N)c2n1 [Example 9, 4-(3-amino-1H-pyrazolo[4,3-b]pyridin-5-yl)-N-((1s,3s)-3-hydroxy-3-(trifluoromethyl)cyclobutyl)-N,3-dimethylbenzenesulfonamide]
EC50 [1]: 0.577 µM | EC50 [2, 5]: 0.46 µM | EC50 [3]: 2.14 µM | EC50 [4]: 2.27 µM

Nc1n[nH]c2ccc(-c3ccc(NS(=O)(=O)c4ccc5c(c4)OCO5)cc3Cl)nc12 [Example 11, N-(4-(3-amino-1H-pyrazolo[4,3-b]pyridin-5-yl)-3-chlorophenyl)benzo[d][1,3]dioxole-5-sulfonamide]
EC50 [1]: 2.46 µM | EC50 [2, 5]: 0.801 µM | EC50 [3]: 0.841 µM | EC50 [4]: 3.05 µM

Nc1n[nH]c2ccc(-c3ccc(S(=O)(=O)NC4CCCCC4O)cc3Cl)nc12 (stereo not shown) [Example 12, 4-(3-amino-1H-pyrazolo[4,3-b]pyridin-5-yl)-3-chloro-N-(2-hydroxycyclohexyl)benzenesulfonamide]
EC50 [1]: 4.62 µM | EC50 [2, 5]: 0.765 µM | EC50 [3]: 5.39 µM | EC50 [4]: 5.79 µM

Cc1cc(S(=O)(=O)Nc2ccccc2)ccc1-c1ccc2[nH]nc(N)c2n1 [Example 16, 4-(3-amino-1H-pyrazolo[4,3-b]pyridin-5-yl)-3-methyl-N-phenylbenzenesulfonamide]
EC50 [1]: 4.65 µM | EC50 [2, 5]: 0.61 µM | EC50 [3]: 2.81 µM | EC50 [4]: 3.86 µM

Nc1n[nH]c2ccc(-c3ccc(S(=O)(=O)N4CC(F)(F)C[C@H]4CO)cc3Cl)nc12 [Example 18, (S)-(1-((4-(3-amino-1H-pyrazolo[4,3-b]pyridin-5-yl)-3-chlorophenyl)sulfonyl)-4,4-difluoropyrrolidin-2-yl)methanol]
EC50 [1]: 1.83 µM | EC50 [2, 5]: 0.764 µM | EC50 [3]: 0.75 µM | EC50 [4]: 1.77 µM

Cc1cc(S(=O)(=O)N2CC3CCCC3C2)ccc1-c1ccc2[nH]nc(N)c2n1 (stereo not shown) [Example 21, 5-(4-((hexahydrocyclopenta[c]pyrrol-2(1H)-yl)sulfonyl)-2-methylphenyl)-1H-pyrazolo[4,3-b]pyridin-3-amine]
EC50 [1]: 3.71 µM | EC50 [2, 5]: 0.598 µM | EC50 [3]: 3.51 µM | EC50 [4]: 4.93 µM

Cc1cc(S(=O)(=O)N[C@H]2CC[C@@](O)(C(F)(F)F)CC2)ccc1-c1ccc2[nH]nc(N)c2n1 [Example 68, 4-(3-amino-1H-pyrazolo[4,3-b]pyridin-5-yl)-N-((1r,4r)-4-hydroxy-4-(trifluoromethyl)cyclohexyl)-3-methylbenzenesulfonamide]
EC50 [2, 5]: 0.354 µM

Cc1cc(S(=O)(=O)N[C@H]2CC[C@@H](O)CC2)ccc1-c1ccc2[nH]nc(N)c2n1 [Example 69, 4-(3-amino-1H-pyrazolo[4,3-b]pyridin-5-yl)-N-((1s,4s)-4-hydroxycyclohexyl)-3-methylbenzenesulfonamide]
EC50 [2, 5]: 0.912 µM

Cc1cc(S(=O)(=O)N2CCC[C@H]2CO)ccc1-c1ccc2[nH]nc(N)c2n1 [Example 70, (S)-(1-((4-(3-amino-1H-pyrazolo[4,3-b]pyridin-5-yl)-3-methylphenyl)sulfonyl)pyrrolidin-2-yl)methanol]
EC50 [2, 5]: 0.762 µM

Nc1n[nH]c2ccc(-c3ccc(S(=O)(=O)N4CC[C@H](O)C4)cc3Cl)nc12 [Example 71, (S)-1-((4-(3-amino-1H-pyrazolo[4,3-b]pyridin-5-yl)-3-chlorophenyl)sulfonyl)pyrrolidin-3-ol]
EC50 [2, 5]: 3.53 µM

Nc1n[nH]c2ccc(-c3ccc(S(=O)(=O)NCc4ccccc4)cc3Cl)nc12 [Example 73, 4-(3-amino-1H-pyrazolo[4,3-b]pyridin-5-yl)-N-benzyl-3-chlorobenzenesulfonamide]
EC50 [2, 5]: 3.53 µM

Nc1n[nH]c2ccc(-c3ccc(S(=O)(=O)N4CC(F)(F)C4)cc3Cl)nc12 [Example 74, 5-(2-chloro-4-((3,3-difluoroazetidin-1-yl)sulfonyl)phenyl)-1H-pyrazolo[4,3-b]pyridin-3-amine]
EC50 [2, 5]: 2.03 µM

CC(C)(C)NS(=O)(=O)c1ccc(-c2ccc3[nH]nc(N)c3n2)c(F)c1 [Example 75, 4-(3-amino-1H-pyrazolo[4,3-b]pyridin-5-yl)-N-tert-butyl-3-fluorobenzenesulfonamide]
EC50 [2, 5]: 1.52 µM

Cc1cc(S(=O)(=O)N[C@H]2C[C@H](O)C2)ccc1-c1ccc2[nH]nc(N)c2n1 [Example 77, 4-(3-amino-1H-pyrazolo[4,3-b]pyridin-5-yl)-N-((1r,3r)-3-hydroxycyclobutyl)-3-methylbenzenesulfonamide]
EC50 [2, 5]: 0.777 µM

Nc1n[nH]c2ccc(-c3ccc(NS(=O)(=O)c4ccc(C(F)(F)F)cc4)cc3Cl)nc12 [Example 78, N-(4-(3-amino-1H-pyrazolo[4,3-b]pyridin-5-yl)-3-chlorophenyl)-4-(trifluoromethyl)benzenesulfonamide]
EC50 [2, 5]: 2.44 µM

COc1ccc(S(=O)(=O)Nc2ccc(-c3ccc4[nH]nc(N)c4n3)c(Cl)c2)cc1OC [Example 79, N-(4-(3-amino-1H-pyrazolo[4,3-b]pyridin-5-yl)-3-chlorophenyl)-3,4-dimethoxybenzenesulfonamide]
EC50 [2, 5]: 0.061 µM

Cc1cc(S(=O)(=O)N[C@H]2CC[C@](C)(O)CC2)ccc1-c1ccc2[nH]nc(N)c2n1 [Example 80, 4-(3-amino-1H-pyrazolo[4,3-b]pyridin-5-yl)-N-((1r,4r)-4-hydroxy-4-methylcyclohexyl)-3-methylbenzenesulfonamide]
EC50 [2, 5]: 0.225 µM

Nc1n[nH]c2ccc(-c3ccc(S(=O)(=O)Nc4cccc(F)c4F)cc3Cl)nc12 [Example 81, 4-(3-amino-1H-pyrazolo[4,3-b]pyridin-5-yl)-3-chloro-N-(2,3-difluorophenyl)benzenesulfonamide]
EC50 [2, 5]: 0.203 µM

Cc1cc(S(=O)(=O)N2CCC(CCO)C2)ccc1-c1ccc2[nH]nc(N)c2n1 (stereo not shown) [Example 83, 2-(1-((4-(3-amino-1H-pyrazolo[4,3-b]pyridin-5-yl)-3-methylphenyl)sulfonyl)pyrrolidin-3-yl)ethanol]
EC50 [2, 5]: 5.33 µM

Cc1cccc(S(=O)(=O)Nc2ccc(-c3ccc4[nH]nc(N)c4n3)c(Cl)c2)c1 [Example 84, N-(4-(3-amino-1H-pyrazolo[4,3-b]pyridin-5-yl)-3-chlorophenyl)-3-methylbenzenesulfonamide]
EC50 [2, 5]: 0.045 µM

Nc1n[nH]c2ccc(-c3ccc(S(=O)(=O)N[C@H]4C[C@@H](CO)C4)cc3Cl)nc12 [Example 85, 4-(3-amino-1H-pyrazolo[4,3-b]pyridin-5-yl)-3-chloro-N-((1s,3s)-3-(hydroxymethyl)cyclobutyl)benzenesulfonamide]
EC50 [2, 5]: 1.75 µM

Nc1n[nH]c2ccc(-c3ccc(S(=O)(=O)N4CC(Oc5ccccc5)C4)cc3Cl)nc12 [Example 87, 5-(2-chloro-4-((3-phenoxyazetidin-1-yl)sulfonyl)phenyl)-1H-pyrazolo[4,3-b]pyridin-3-amine]
EC50 [2, 5]: 0.83 µM

Nc1n[nH]c2ccc(-c3ccc(NS(=O)(=O)c4ccc(OC(F)(F)F)cc4)cc3Cl)nc12 [Example 88, N-(4-(3-amino-1H-pyrazolo[4,3-b]pyridin-5-yl)-3-chlorophenyl)-4-(trifluoromethoxy)benzenesulfonamide]
EC50 [2, 5]: 2.43 µM

Nc1n[nH]c2ccc(-c3ccc(S(=O)(=O)Nc4cccc(Cl)c4)cc3Cl)nc12 [Example 90, 4-(3-amino-1H-pyrazolo[4,3-b]pyridin-5-yl)-3-chloro-N-(3-chlorophenyl)benzenesulfonamide]
EC50 [2, 5]: 2.54 µM

Cc1cc(S(=O)(=O)NC2CCCCC2O)ccc1-c1ccc2[nH]nc(N)c2n1 (stereo not shown) [Example 91, 4-(3-amino-1H-pyrazolo[4,3-b]pyridin-5-yl)-N-(2-hydroxycyclohexyl)-3-methylbenzenesulfonamide]
EC50 [2, 5]: 1.81 µM

Nc1n[nH]c2ccc(-c3ccc(S(=O)(=O)N[C@H]4CCC[C@@H]4O)cc3Cl)nc12 [Example 94, 4-(3-amino-1H-pyrazolo[4,3-b]pyridin-5-yl)-3-chloro-N-((1S,2S)-2-hydroxycyclopentyl)benzenesulfonamide]
EC50 [2, 5]: 0.026 µM

CC1(C)CN(C(=O)c2ccc(-c3cccc4nc(NC(=O)C5CC5)nn34)cc2)C1 [reference compound]
EC50 [2, 6]: 1.42 µM

C[C@@H](O)c1nc2cnc3[nH]ccc3c2n1[C@H]1CC[C@H](C#N)CC1 [reference compound]
EC50 [2, 6]: 2.69 µM

C[C@@H](O)c1nc2cnc3[nH]ccc3c2n1[C@@H]1CCCOC1 [reference compound]
EC50 [2, 6]: 1.34 µM

C1=C/COCc2cc(ccc2OCCN2CCCC2)Nc2nccc(n2)-c2cccc(c2)COC/1 [reference compound]
EC50 [2, 6]: 1.06 µM
